US9422324B2, “6-substituted demethyl-estradiol derivatives as selective ER-β agonists” (priority 2010, dated 2016)

Legend:
[1] = target: ERβ (Homo sapiens (Human), UniProt Q92731); assay: Luciferase reporter assay in MDA-MB-231 cells transfected with ERα or ERβ; assay type: cell-based; conditions: MDA-MB-231, 24 hours; relative to B and I; from FIGS. 2 and 3 and Table 1
Method: Response of I and B on ERα and ERβ is measured by a luciferase assay. MDA-MB-231 cells are transiently transfected with expression vectors encoding either ERα or ERβ and co-transfected with a luciferase reporter construct. Cells are treated for 24 hours at […] with increasing amounts of test article.

[2] = system: TREK2; assay: Expression profiling (Agilent microarray), TREK2 gene transcription in tumor cell lines; assay type: cell-based, human; conditions: 24 hours
Method: (§1) The study includes three human tumor cell lines: A549, Panc-1, and SK-OV-3. The lines are each grown in two flasks cultured to roughly 40% confluence. One of the flasks is treated by addition of drug to the culture media at a various concentrations. The other, mock treated, flask is treated only with the vehicle used to solubilize and deliver the drug. RNA extracted from the pairs of treated and untreated samples is subjected to microarray analysis on Agilent Whole Human Genome Microarrays (G4112F). Each analysis reports the difference in abundance of messenger RNAs for each of the 41,000 specific mRNA detectors on the array. This direct comparison of the treated versus untreated samples for each cell line provides extremely sensitive detection of changes in mRNA abundance resulting from the drug treatment. As each cell line comparison is self-normalized, the results can be compared across the samples with high confidence.
(§2) Three human tumor cell lines, A549, Panc-1, and SK-OV-3, are each grown in two flasks cultured to roughly 40% confluence. One of the flasks is treated by addition of compound 1 to the culture media at concentrations according to Table 1 above. The other, mock treated, flask is treated only with the vehicle used to solubilize and deliver the drug. All flasks are cultured for a further 24 hours, and then the cells are scraped free and washed in ice-cold PBS, then collected by centrifugation. The harvested cells are immediately frozen, and stored at −80° C. or colder. It is visually noticeable that the treated cells yielded less mass than the untreated cells.
(§3) Total RNA is prepared from the frozen tissue samples using Trizol-based cell lysis followed by 65° C. hot phenol extraction and RNeasy chromatography purification. The purified RNA samples are analyzed spectrophotometrically. The concentration of RNA is determined by measuring the absorbance at 260 nm (A260). Given an absorbance of 1 unit at 260 nm corresponds to […].
(§4) All RNAs are labeled using 1 microgram of RNA as input to an Agilent Low Input Labeling reaction.
(§5) Test RNA is labeled with Cy5 (650 nm emitter) and reference RNA is labeled with Cy3 (550 nm emitter) nucleotides. Labeling, hybridizations and subsequent washings are carried out on Agilent H1Av2 human expression chips. The resulting hybridized chips are scanned on an Agilent microarray scanner, and intensity information for each detector spot is extracted from the scanned image using Agilent feature extraction software. The set of data images and extracted measurements from each image are supplied.
(§6) The data reported are the red (treated) and green (untreated) background-subtracted signals. This is the least modified form of the data. A background “surface” is estimated across the slide, based on numerous probes that are not complementary to human DNA. These serve as estimators of both non-specific binding of labeled cRNA to array surfaces and non-specific binding of labeled cRNA to the immobilized DNA oligomers. Using this information, local noise around each probe is estimated and this is subtracted from the signal found at the area of oligonucleotide deposition for each particular probe feature on the array (gBGSubSignal, rBGSubSignal). The ratio of signal from the RNA of the treated cell and the RNA of the untreated cell is reported both as a direct ratio and as the log2 ratio (Ratio, Log2Ratio).
(§7) After the ratios have been calculated for the normalized data, the various control and duplicate samples are analyzed to build a model of how reproducible the results are, and how this reproducibility is varies depending on signal strength and noise. With these parameters, an estimate of the likelihood that each ratio could have arisen if the red and green intensities are randomly drawn from a single process that produced the same distribution of intensities is produced. […]

[3] = system: TREK1; assay: Expression profiling (Agilent microarray), TREK1 gene transcription in tumor cell lines; assay type: cell-based, human; conditions: 24 hours
Method: as §1, §2, §3, §4, §5, §6, §7

ERβ, sequence (Q92731 whole entry, species assumed): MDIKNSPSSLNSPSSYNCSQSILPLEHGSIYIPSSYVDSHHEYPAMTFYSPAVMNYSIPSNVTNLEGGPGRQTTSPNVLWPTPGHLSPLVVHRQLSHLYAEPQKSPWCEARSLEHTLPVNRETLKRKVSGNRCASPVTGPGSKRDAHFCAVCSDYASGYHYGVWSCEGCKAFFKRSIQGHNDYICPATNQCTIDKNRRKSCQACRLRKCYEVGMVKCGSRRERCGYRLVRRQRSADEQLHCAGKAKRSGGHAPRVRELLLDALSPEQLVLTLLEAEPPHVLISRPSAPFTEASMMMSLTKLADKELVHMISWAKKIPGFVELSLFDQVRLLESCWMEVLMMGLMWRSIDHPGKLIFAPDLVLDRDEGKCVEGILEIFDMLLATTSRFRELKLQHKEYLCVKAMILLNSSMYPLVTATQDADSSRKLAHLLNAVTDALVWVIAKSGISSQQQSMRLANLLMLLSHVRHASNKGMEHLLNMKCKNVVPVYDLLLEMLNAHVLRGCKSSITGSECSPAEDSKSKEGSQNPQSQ

SMILES: COC[C@@H]1C[C@@H]2[C@H](CCC3[C@H]2CC[C@@H]3O)c2ccc(O)cc21 (stereo partly drawn) [compound 1, (6R,8S,9S,14S,17S)-6-(methoxymethyl)-7,8,9,11,12,13,14,15,16,17-decahydro-6H-cyclopenta[a]phenanthrene-3,17-diol]
- ER subtype functional profile (% of E2 activity on ERα and ERβ) [1]: ERβ specific agonist
- TREK2 Log 2 ratio treated/untreated ([2]; A549, 50 μM): 5.37/
- TREK2 Log 2 ratio treated/untreated ([2]; A549, 20 μm): 3.79/
- TREK2 Log 2 ratio treated/untreated ([2]; A549, 100 μm): 3.00/
- TREK2 Log 2 ratio treated/untreated ([2]; PANC1, 50 μM): 4.20/
- TREK2 Log 2 ratio treated/untreated ([2]; PANC1, 20 μm): 4.15/
- TREK2 Log 2 ratio treated/untreated ([2]; PANC1, 100 μm): 3.91/
- TREK2 Log 2 ratio treated/untreated ([2]; SKOV-3, 50 μM): 5.56/
- TREK2 Log 2 ratio treated/untreated ([2]; SKOV-3, 20 μm): 4.12/
- TREK2 Log 2 ratio treated/untreated ([2]; SKOV-3, 100 μm): 4.07/
- TREK1 Log 2 ratio treated/untreated ([3]; A549, 50 μM): 4.07/
- TREK1 Log 2 ratio treated/untreated ([3]; A549, 100 μm): 3.53/
- TREK1 Log 2 ratio treated/untreated ([3]; PANC1, 50 μM): 2.05/
- TREK1 Log 2 ratio treated/untreated ([3]; PANC1, 20 μm): 4.78/
- TREK1 Log 2 ratio treated/untreated ([3]; PANC1, 100 μm): 3.51/
- TREK1 Log 2 ratio treated/untreated ([3]; SKOV-3, 50 μM): 2.80/
- TREK1 Log 2 ratio treated/untreated ([3]; SKOV-3, 20 μm): 1.96/
- TREK1 Log 2 ratio treated/untreated ([3]; SKOV-3, 100 μm): 1.97/
